In patent publication US20190337971A1, “PANTETHEINE DERIVATIVES FOR THE TREATMENT OF NEUROLOGIC DISORDERS” (Retrophin, Inc., priority 2016, published 2019) one finds fold induction data, which are given here for 10 compounds.

Structures are written as SMILES.

The test system of this assay is PANK2−/− IMR32 cells. Kind of assay: Coenzyme A assay in PANK2 silenced cells (LC-MS quantification of free CoA). Particulars: Homo sapiens, IMR-32, fold increase in CoA levels relative to controls, treated twice, 24 h + 24 h; for fold induction at 50 µM: compound concentration 50 uM; for fold induction at 1 µM: compound concentration 1 uM. Type of assay: cell-based, human. On the procedure: A human neuroblastoma IMR32 cell line (ATCC) with stably PANK2 silencing was obtained by lentiviral-delivered small hairpin RNA and cultured in MEM (Invitrogen) supplemented with 10% fetal bovine serum, 2 mM glutamine, 1% penicillin-streptomycin, 1 mM sodium pyruvate, 1 mM non-essential amino acids, and 1.5 g/l sodium bicarbonate.
A non-silencing shRNA construct (scrambled shRNA) and an empty vector expressing GFP alone were used as negative controls. The GFP tag subcloned into the lentiviral vectors was used to monitor the transfection efficiency.
Three days after transduction medium was removed and replaced with fresh medium containing […] puromycin. […] The level of PANK2 expression in selected clones was assessed by Western Blot analysis.
To quantify CoA, PANK2−/− IMR32 cells were plated on 12-well culture plates (Corning) at a density of 0.2×10^6 cells per well. […] Controls with medium containing 0.1% DMSO without test compounds were also included in each plate. […] Before LC-MS analysis of CoA levels, cells were harvested, counted, and collected in a 15 ml falcon tube and centrifuged at 200×g for 5 min at 4° C. Supernatant was removed and cell pellet was washed in 10 ml of ice-cold PBS. To further confirm that the numbers of cells in each sample were equivalent, an equal fraction of pellet was collected from each sample and subjected to protein determination analysis. After centrifugation and supernatant removal, the cell pellet was rapidly frozen in Liquid Nitrogen and stored at −80° C. until analysis.
Intracellular CoA levels were calculated considering an intracellular volume of 1 million cells=2 μl.
The 1*10^6 cellular pellet was extracted with 120 μl of aqueous 20% TFA.
100 μL samples of supernatant were dried under N2 at 20° C. in the dark.
Samples were re-dissolved in 100 μl of 10 mM NH4^+ AcO^− buffer pH 5.1+IS (Dextrorphan 50 ng/ml), stirred for 2 min, sonicated in ultrasonic bath for 1 min, then stirred again for 1 min, and injected into LC-MS.
LC-MS/MS was performed using an Agilent HPLC (1100 Series, USA). The LC system was interfaced with an API-4000 Q-Trap triple quadrupole mass spectrometer (AB Sciex, Toronto, Canada) equipped with a TurboIonSpray ionization source operating in positive ion mode. Analyst™ software version 1.6 (AB Sciex, Toronto, Canada) was used for data acquisition and processing. CoA was separated using a Luna C18 column (2.0×50 mm; 5 μm particle size), column at 25° C. and flow rate of 0.2 ml/min. Injection volume was 15 μl. The mobile phases consisted of water containing 10 mM ammonium acetate pH 7 (mobile phase A) and MeCN-2-propanol 9:1 (mobile phase B).
Results are expressed as fold increase in CoA levels relative to controls (using LC-MS quantification of free CoA).

For the compound `COC(=O)[C@H](C)N[P@]1(=O)OCC(C)(C)[C@H](C(=O)NCCC(=O)NCCSC(C)=O)O1` [R1004, methyl ((2S,4R)-4-((3-((2-(acetylthio)ethyl)amino)-3-oxopropyl)carbamoyl)-5,5-dimethyl-2-oxido-1,3,2-dioxaphosphinan-2-yl)-L-alaninate], the fold induction at 50 µM worked out at 2.1.
As for `CC(=O)SCCNC(=O)CCNC(=O)[C@@H]1OP(=O)(OCOC(=O)c2ccccc2)OCC1(C)C` (stereo partly drawn) [R1009, (((4R)-4-((3-((2-(acetylthio)ethyl)amino)-3-oxopropyl)carbamoyl)-5,5-dimethyl-2-oxido-1,3,2-dioxaphosphinan-2-yl)oxy)methyl benzoate], the fold induction at 1 µM is 69.5.
On the same count and under the same terms, the value for `CC(=O)SCCNC(=O)CCNC(=O)[C@@H]1OP(=O)(OCOC(=O)c2cc(C(C)(C)C)nn2C)OCC1(C)C` (stereo partly drawn) [R1010, (((4R)-4-((3-((2-(acetylthio)ethyl)amino)-3-oxopropyl)carbamoyl)-5,5-dimethyl-2-oxido-1,3,2-dioxaphosphinan-2-yl)oxy)methyl 3-(tert-butyl)-1-methyl-1H-pyrazole-5-carboxylate] was 200.
In the case of `COC(=O)[C@@H](N[P@@]1(=O)OCC(C)(C)[C@H](C(=O)NCCC(=O)NCCSC(C)=O)O1)C(C)C` [R1014, methyl ((2R,4R)-4-((3-((2-(acetylthio)ethyl)amino)-3-oxopropyl)carbamoyl)-5,5-dimethyl-2-oxido-1,3,2-dioxaphosphinan-2-yl)-L-valinate], the fold induction at 50 µM was 1.7.
In the case of `CC(=O)SCCNC(=O)CCNC(=O)[C@@H]1O[P@@](=O)(OCOC(=O)c2cc(C(C)(C)C)n[nH]2)OCC1(C)C` [R1016, (((2S,4R)-4-((3-((2-(acetylthio)ethyl)amino)-3-oxopropyl)carbamoyl)-5,5-dimethyl-2-oxido-1,3,2-dioxaphosphinan-2-yl)oxy)methyl 3-(tert-butyl)-1H-pyrazole-5-carboxylate], the fold induction at 1 µM worked out at 323.
On the same count and under the same terms, the value for `CC(=O)SCCNC(=O)CCNC(=O)[C@@H]1O[P@@](=O)(OCOC(=O)OC(C)C)OCC1(C)C` [R1017, S-(2-(3-((2S,4R)-2-(((isopropoxycarbonyl)oxy)methoxy)-5,5-dimethyl-2-oxido-1,3,2-dioxaphosphinane-4-carboxamido)propanamido)ethyl) ethanethioate] was 18.4; that for `CC(=O)SCCNC(=O)CCNC(=O)[C@@H]1OP(=O)(OCOC(=O)C(C)C)OCC1(C)C` (stereo partly drawn) [R1024, (((4R)-4-((3-((2-(acetylthio)ethyl)amino)-3-oxopropyl)carbamoyl)-5,5-dimethyl-2-oxido-1,3,2-dioxaphosphinan-2-yl)oxy)methyl isobutyrate] was 1.4.
Regarding `CC(=O)OCCNC(=O)OCOP1(=O)OCC(C)(C)[C@H](C(=O)NCCC(=O)NCCSC(C)=O)O1` (stereo partly drawn) [R1025, 2-((((((4R)-4-((3-((2-(acetylthio)ethyl)amino)-3-oxopropyl)carbamoyl)-5,5-dimethyl-2-oxido-1,3,2-dioxaphosphinan-2-yl)oxy)methoxy)carbonyl)amino)ethyl acetate], the fold induction at 10 µM (compound concentration 10 uM) came out at 1.4.
Regarding `COC(=O)[C@@H](NP1(=O)OCC(C)(C)[C@H](C(=O)NCCC(=O)NCCSC(C)=O)O1)C(C)C` (stereo partly drawn) [R1026, methyl ((4R)-4-((3-((2-(acetylthio)ethyl)amino)-3-oxopropyl)carbamoyl)-5,5-dimethyl-2-oxido-1,3,2-dioxaphosphinan-2-yl)-L-valinate], the fold induction at 50 µM is 2.5.
With `CC(=O)OCC(C)(C)NC(=O)OCOP1(=O)OCC(C)(C)[C@H](C(=O)NCCC(=O)NCCSC(C)=O)O1` (stereo partly drawn) [R1027, 2-((((((4R)-4-((3-((2-(acetylthio)ethyl)amino)-3-oxopropyl)carbamoyl)-5,5-dimethyl-2-oxido-1,3,2-dioxaphosphinan-2-yl)oxy)methoxy)carbonyl)amino)-2-methylpropyl acetate], the fold induction at 50 µM was determined as 2.8.

The term fold induction denotes the ratio of treated to control signal.
